Data: US12509452B2, “Substituted-isoxazoline-containing aromatic compound, preparation method therefor, herbicidal composition and use thereof” (QINGDAO KINGAGROOT CHEMICAL COMPOUND CO., LTD., priority 2019, dated 2025)

Columns and labels:
Assay in all cases: weeding effect in post-emergence stage
Format in all cases: in vivo
Beckmannia syzigachne = system: Beckmannia syzigachne
Excerpt: (§1) The activity level criteria for plant damage (i.e., growth control rate) are as follows: • Level 5: growth control rate is above 85%; • Level 4: growth control rate is greater than or equal to 60% and less than 85%; • Level 3: growth control rate is greater than or equal to 40% and less than 60%; • Level 2: growth control rate is greater than or equal to 20% and less than 40%; • Level 1: growth control rate is greater than or equal to 5% and less than 20%; • Level 0: growth control rate is less than 5%.
(§2) The above growth control rates are fresh weight control rates.
(§3) Experiment on weeding effect in post-emergence stage:
(§4) Monocotyledonous and dicotyledonous weed seeds (Descurainia sophia, Capsella bursa-pastoris, Abutilon theophrasti, Galium aparine, Stellaria media, Lithospermum arvense, Rorippa indica, Alopecurus aequalis, Alopecurus japonicus, Beckmannia syzigachne, Sclerochloa dura, Conyza Canadensis, Phleum paniculatum, Veronica didyma Tenore, Bromus japonicus, Aegilops tauschii, Phalaris arundinacea, Amaranthus retroflexus, Chenopodium album, Commelina communis, Sonchus arvensis, Convolvulus arvensis, Cirsium setosum, Solanum nigrum, Acalypha australis, Digitaria sanguinalis, Echinochloa crusgalli, Setaria viridis, Setaria glauca, Leptochloa chinensis, Monochoria vaginalis, Sagittaria trifolia, Scirpus juncoides, Cyperus rotundus, Cyperus iria, Cyperus difformis, Fimbristylis, Portulaca oleracea, Xanthium sibiricum, Pharbitis nil, Conyza japonica, etc.) and major crop seeds (wheat, corn, rice, soybean, cotton, oilseed rape, millet, sorghum, potato, sesame, ricinus, etc.) were placed in plastic pots filled with soil, then covered with 0.5-2 cm of soil, allowed to grow in a good greenhouse environment. After 2 weeks of sowing, the test plants were treated in the 2-3 leaf stage. The tested compounds of the present invention were respectively dissolved in acetone, then added with Tween 80 and 1.5 liter/ha of emulsifiable concentrate of methyl oleate as synergist, diluted with a certain amount of water to obtain a solution with a certain concentration, and sprayed with a spray tower onto the plants. After the application, the plants were cultured for 3 weeks in the greenhouse, and then the experimental results of the weeding were counted. The doses of the used compounds were 500, 250, 125, 60, 15, 7.5 g a.i./ha, and the averages were obtained by repeating for three times.

Alopecurus japonicus = system: Alopecurus japonicus
Excerpt: as §1, §2, §3, §4

Conyza japonica = system: Conyza japonica
Excerpt: as §1, §2, §3, §4

Rorippa indica = system: Rorippa indica
Excerpt: as §1, §2, §3, §4

| SMILES | weeding effect in post-emergence stage, Beckmannia syzigachne (activity level) (Beckmannia syzigachne; dose 125 g a.i./ha) | weeding effect in post-emergence stage, Alopecurus japonicus (activity level) (Alopecurus japonicus; dose 125 g a.i./ha) | weeding effect in post-emergence stage, Conyza japonica (activity level) (Conyza japonica; dose 125 g a.i./ha) | weeding effect in post-emergence stage, Rorippa indica (activity level) (Rorippa indica; dose 125 g a.i./ha) | weeding effect in post-emergence stage, Beckmannia syzigachne (activity level) (Beckmannia syzigachne; dose 15 g a.i./ha) | weeding effect in post-emergence stage, Alopecurus japonicus (activity level) (Alopecurus japonicus; dose 15 g a.i./ha) | weeding effect in post-emergence stage, Conyza japonica (activity level) (Conyza japonica; dose 15 g a.i./ha) | weeding effect in post-emergence stage, Rorippa indica (activity level) (Rorippa indica; dose 15 g a.i./ha) |
| --- | --- | --- | --- | --- | --- | --- | --- | --- |
| CCOC(=O)COC(C)C1(C(=O)OCC)CC(c2cc(-n3c(=O)n(C)c(=S)n(C)c3=O)c(F)cc2Cl)=NO1 (mixture of isomers) [Compound 55] | 5 (Level 5: growth control rate is above 85%) | 5 (Level 5: growth control rate is above 85%) | 5 (Level 5: growth control rate is above 85%) | 5 (Level 5: growth control rate is above 85%) | – | – | – | – |
| CCOC(=O)C1(CC)CC(c2cc(-n3c(=O)n(C)c(=S)n(C)c3=O)c(F)cc2Cl)=NO1 (racemic) [Compound 3] | 5 (Level 5: growth control rate is above 85%) | 5 (Level 5: growth control rate is above 85%) | 5 (Level 5: growth control rate is above 85%) | 5 (Level 5: growth control rate is above 85%) | 5 (Level 5: growth control rate is above 85%) | 5 (Level 5: growth control rate is above 85%) | 5 (Level 5: growth control rate is above 85%) | 5 (Level 5: growth control rate is above 85%) |
| CCCC1(C(=O)OCC)CC(c2cc(-n3c(=O)n(C)c(=S)n(C)c3=O)c(F)cc2Cl)=NO1 (racemic) [Compound 4] | 5 (Level 5: growth control rate is above 85%) | 5 (Level 5: growth control rate is above 85%) | 5 (Level 5: growth control rate is above 85%) | 5 (Level 5: growth control rate is above 85%) | 4 (Level 4: growth control rate is greater than or equal to 60% and less than 85%) | 5 (Level 5: growth control rate is above 85%) | 4 (Level 4: growth control rate is greater than or equal to 60% and less than 85%) | 5 (Level 5: growth control rate is above 85%) |
| CCOC(=O)C1(C(C)C)CC(c2cc(-n3c(=O)n(C)c(=S)n(C)c3=O)c(F)cc2Cl)=NO1 (racemic) [Compound 5] | 5 (Level 5: growth control rate is above 85%) | 5 (Level 5: growth control rate is above 85%) | 5 (Level 5: growth control rate is above 85%) | 5 (Level 5: growth control rate is above 85%) | 4 (Level 4: growth control rate is greater than or equal to 60% and less than 85%) | 5 (Level 5: growth control rate is above 85%) | 4 (Level 4: growth control rate is greater than or equal to 60% and less than 85%) | 5 (Level 5: growth control rate is above 85%) |
| CCCCC1(C(=O)OCC)CC(c2cc(-n3c(=O)n(C)c(=S)n(C)c3=O)c(F)cc2Cl)=NO1 (racemic) [Compound 6] | 5 (Level 5: growth control rate is above 85%) | 5 (Level 5: growth control rate is above 85%) | 5 (Level 5: growth control rate is above 85%) | 5 (Level 5: growth control rate is above 85%) | 5 (Level 5: growth control rate is above 85%) | 5 (Level 5: growth control rate is above 85%) | 5 (Level 5: growth control rate is above 85%) | 5 (Level 5: growth control rate is above 85%) |
| CCOC(=O)C1(C2CC2)CC(c2cc(-n3c(=O)n(C)c(=S)n(C)c3=O)c(F)cc2Cl)=NO1 (racemic) [Compound 17] | 5 (Level 5: growth control rate is above 85%) | 5 (Level 5: growth control rate is above 85%) | 5 (Level 5: growth control rate is above 85%) | 5 (Level 5: growth control rate is above 85%) | 5 (Level 5: growth control rate is above 85%) | 5 (Level 5: growth control rate is above 85%) | 5 (Level 5: growth control rate is above 85%) | 5 (Level 5: growth control rate is above 85%) |
| CCOC(=O)C1(CC2CC2)CC(c2cc(-n3c(=O)n(C)c(=S)n(C)c3=O)c(F)cc2Cl)=NO1 (racemic) [Compound 26] | 5 (Level 5: growth control rate is above 85%) | 5 (Level 5: growth control rate is above 85%) | 5 (Level 5: growth control rate is above 85%) | 5 (Level 5: growth control rate is above 85%) | 5 (Level 5: growth control rate is above 85%) | 5 (Level 5: growth control rate is above 85%) | 5 (Level 5: growth control rate is above 85%) | 5 (Level 5: growth control rate is above 85%) |
| CCOC(=O)C1(CBr)CC(c2cc(-n3c(=O)n(C)c(=S)n(C)c3=O)c(F)cc2Cl)=NO1 (racemic) [Compound 31] | 5 (Level 5: growth control rate is above 85%) | 5 (Level 5: growth control rate is above 85%) | 5 (Level 5: growth control rate is above 85%) | 5 (Level 5: growth control rate is above 85%) | – | – | – | – |
| CCOC(=O)C1(C(F)(F)F)CC(c2cc(-n3c(=O)n(C)c(=S)n(C)c3=O)c(F)cc2Cl)=NO1 (racemic) [Compound 33] | 5 (Level 5: growth control rate is above 85%) | 5 (Level 5: growth control rate is above 85%) | 5 (Level 5: growth control rate is above 85%) | 5 (Level 5: growth control rate is above 85%) | – | – | – | – |
| CCOC(=O)C1(CCF)CC(c2cc(-n3c(=O)n(C)c(=S)n(C)c3=O)c(F)cc2Cl)=NO1 (racemic) [Compound 34] | 5 (Level 5: growth control rate is above 85%) | 5 (Level 5: growth control rate is above 85%) | 5 (Level 5: growth control rate is above 85%) | 5 (Level 5: growth control rate is above 85%) | 5 (Level 5: growth control rate is above 85%) | 5 (Level 5: growth control rate is above 85%) | 5 (Level 5: growth control rate is above 85%) | 5 (Level 5: growth control rate is above 85%) |
| CCOC(=O)C1(CC(F)F)CC(c2cc(-n3c(=O)n(C)c(=S)n(C)c3=O)c(F)cc2Cl)=NO1 (racemic) [Compound 35] | 5 (Level 5: growth control rate is above 85%) | 5 (Level 5: growth control rate is above 85%) | 5 (Level 5: growth control rate is above 85%) | 5 (Level 5: growth control rate is above 85%) | – | – | 4 (Level 4: growth control rate is greater than or equal to 60% and less than 85%) | 5 (Level 5: growth control rate is above 85%) |
